Test results published in patent US20250034525A1, “CONSTRUCTION METHOD, DETECTION METHOD, AND APPLICATION OF IN VITRO TISSUE MODEL OF DIABETIC CARDIOMYOPATHY” (HUBEI UNIVERSITY, priority 2023, published 2025).

Tests used:
Format in all cases: cell-based
[1] = tested on: human engineered heart tissue (hEHT); experiment: Contractility detection of human EHT by mechanical assay (force transducer, stretch)
Method: 1) After EHT was constructed and cultured for 5-7 days (the medium was changed every other day), the EHTs had good structure and beat regularly.
(§1) 2) EHT was stimulated by 500 μM PA, and for the control group, it contained the same concentration of BSA and ethanol. After 24 hours and 72 hours of stimulation, the supernatant and tissue samples were collected for functional detection.
3) A contractility detection system by mechanical assay: the mechanical characteristics of the bundle were detected by using a mechanical measurement platform, in which the bath, platinum electrode, tissue fixation device, and assembly form were self-designed, and other components such as sensors, amplifiers, digital-to-analog converters, data acquisition software, stepper motors, supporting components, temperature controllers and stimulators were all commercially available and assembled in-house after procurement.
4) Experimental steps for contractility detection by mechanical assay: the instrument was preheated for 30 minutes in advance, and the sensor was calibrated with precision weights by gravity. The Tyrode's Solution containing 1.8 mM CaCl2 was put into a 37° C. water bath for preheating in advance, and the platform was set to 37° C. The bundle was dipped into the Tyrode's Solution, and both ends were fixed with specimen needles, wherein one of which was fixed on the sensor and the other was fixed on the bath. Data were collected after the microstructure was balanced for 2 min. Start the electrical stimulator, and stimulate the bundle electrically at a voltage of 10 V and frequencies of 1, 1.5, 2, 2.5, and 3 Hz. Start the stepper motor to control software to start the programmed stretching program, and stretch the bundle from the initial state (8 mm) by 12% (0.96 mm) of the initial length, stretching 2% (0.16 mm) each time, collecting data for 40 s in each stretching state, and collecting contraction force data under different stretching states. After stretching, end the collection and save the data. The collected data were analyzed by the customized program MATLAB software.

[2] = tested on: human engineered heart tissue (hEHT); experiment: Optical mapping detection of human EHT electrical conduction
Method: 1) The electrode was made of 0.2 mm platinum wire, and the conductive function was tested using a sealed membrane nickel wire interface.
2) Fluo-4/RHOD2 was dissolved in DMSO (dimethyl sulfoxide) with a volume ratio of 1:1 to prepare a stock solution, which was then added into EHT medium at a ratio of 1:1,000 (working solution), incubated at 37° C. for 20 min, followed by washing with DPBS twice, then incubated with serum-free EHT medium at 37° C.
3) Preparation of medium for imaging: 10 μM Blebbistatin was added into the Tyrode's Solution or serum-free EHT medium in a volume ratio of 1:2,000 for imaging. The medium for imaging was added into a PDMS dish, the EHT was fixed on the dish with a specimen needle, put in a 41° C. temperature control chamber, and the electrode was put on one side of the EHT; an optical mapping camera was used for formal imaging, and the preview speed of 600 ms was recorded in 10 seconds, then recording was conducted in the cases where there was no electrical stimulation and 1 Hz electrical stimulation, respectively, in which the laser intensity was MAX: 12-16%.
The collected data were analyzed by optical mapping software.

[3] = tested on: human engineered heart tissue (hEHT); experiment: LDH myocardial injury marker in hEHT model; settings: 500 μM PA, 72 h stimulation
Method: In the present disclosure, an in vitro tissue model of diabetic cardiomyopathy obtained by the above construction method is also provided. According to the disclosure, it is identified that a diabetic cardiomyopathy tissue model is generated with myocardial contractility that ranges from unchanged (1 day) to decreased (3 days), concomitant with the appearance of a myocardial fibrosis phenotype by dynamic stimulation of hEHT with 500 μM PA.
as §1

[4] = tested on: human pluripotent stem cell-derived cardiomyocytes; experiment: CCK8 survival rate of human pluripotent stem cell-derived cardiomyocytes (planar monolayer); settings: 250 μM PA, 24 h, versus 30 mM Glucose and 10 nM ET-1 + glucocorticoid, single or combined factors
Method: FIG. 2A-FIG. 2B show the results of confirming the effects of different metabolic factors on survival rate of the cardiomyocytes in the present disclosure.
3) Diluting PA with a final concentration of 250 μM, 500 μM, and 750 μM using cells or EHT medium to stimulate human-derived cardiomyocytes or EHTs. An equivalent amount of ethanol was dissolved in 10% BSA, which was diluted with medium finally as a control solution.
In the present disclosure, firstly, differentiated human cardiomyocytes were paved into planar monolayer cells, and then the cell survival rate was detected by adding 30 mM Glucose, 250 μM PA, 10 nM endothelin (ET-1) and […] glucocorticoid to the medium as single or combined factor(s), respectively, it is identified that the most obvious diabetic stimulus factor for cardiomyocyte injury was PA (FIG. 2A-FIG. 2B). Furthermore, different concentrations of PA were used to stimulate cardiomyocytes, and the concentration and time-dependent effects were evaluated (FIG. 3A). The injury effect of PA was determined through myocardial injury marker LDH (FIG. 3B).

[5] = tested on: human engineered heart tissue (hEHT); experiment: H&E staining and immunofluorescence staining of human EHT (fibrosis)
Method: For the morphological and histological observation after Bundle stimulation, the tissue was first treated by conventional paraffin embedding methods, and then the tissue was stained by basic staining and immunofluorescence staining after slicing. The specific steps were as follows: • (1) Cleaning the bundle twice using DPBS without calcium and magnesium ions. • (2) Fixing the bundle with 4% PFA (Paraformaldehyde) at room temperature for 15 min. • (3) Placing the fixed bundle in a paraffin tissue embedding frame and rinsing it with running water for 2 h. • (4) The […] bundle was subjected to gradient dehydrating and wax dipping using a Dewaxer (Hisure Scientific Co., Ltd.) with a total of 12 cylinders under the following conditions: 70% ethanol for 1 h, 80% ethanol for 1 h, 80% ethanol for 0.5 h, 90% ethanol for 0.5 h, 90% ethanol for 0.5 h, 100% ethanol for 0.5 h, xylene for 0.5 h, xylene for 0.5 h, paraffin at 63° C. for 5 min, paraffin at 63° C. for 5 min and paraffin at 63° C. for 5 min. • (5) After the dehydrated Bundle was placed at the bottom of the iron frame molding tool with an appropriate size, the plastic embedding frame was placed on the iron frame molding tool, and then placed on the freezing platform. […] After adding the anti-fluorescence quencher dropwise, the coverslip was covered, and the slide was mounted with nail polish.

[6] = Empagliflozin added with 500 μM PA, 24 hours' stimulation

| Compound | number of abnormal diastolic peaks of PA-stimulated hEHT ([1]; Empagliflozin added with 500 μM PA, under stretch conditions) | APD80 of PA-stimulated human EHT [2, 6] | contraction amplitude of PA-stimulated human EHT [2, 6] | electric signal conduction velocity of PA-stimulated human EHT [2, 6] | LDH [3] | cardiomyocyte survival rate (CCK8) [4] | pathological changes and level of fibrosis inside human EHT ([5]; 24 hours after PA stimulation) | fibrosis inside the heart tissue ([5]; 72 hours after PA stimulation) | abnormal relaxation (diastolic) peak ([1]; 500 μM PA, 24 h stimulation) | myocardial relaxation time (diastolic duration) ([1]; 500 μM PA, 24 h stimulation) | positive contractility (contraction force) ([1]; 500 μM PA, 24 h stimulation) | abnormal peaks (diastolic) ([1]; 500 μM PA, 72 h stimulation) | inotropic force (contraction force) ([1]; 500 μM PA, 72 h stimulation) | relaxation time (diastolic duration) ([1]; 500 μM PA, 72 h stimulation) | APD50 ([2]; 500 μM PA, 6 h stimulation) | APD80 ([2]; 500 μM PA, 6 h stimulation) | contraction amplitude ([2]; 500 μM PA, 6 h stimulation) | electric signal conduction velocity ([2]; 500 μM PA, 6 h stimulation) |
| --- | --- | --- | --- | --- | --- | --- | --- | --- | --- | --- | --- | --- | --- | --- | --- | --- | --- | --- |
| OC[C@H]1O[C@@H](c2ccc(Cl)c(Cc3ccc(O[C@H]4CCOC4)cc3)c2)[C@H](O)[C@@H](O)[C@@H]1O [Empagliflozin] | reduced number | improved | effectively recover | effectively recover | – | – | – | – | – | – | – | – | – | – | – | – | – | – |
| CCCCCCCCCCCCCCCC(=O)O [PA, palmitic acid] | – | – | – | – | increased significantly | lowest | no obvious pathological changes and changes in the level of fibrosis | obvious fibrosis | abnormal relaxation peak | prolonged | did not affect | more frequent | significant decrease | more frequent prolongation | obviously increased | obviously increased | not decreased | not decreased |
